Patent publication US20220192978A1, “Pharmaceutical Inhalation Aerosol and Preparation Method Therefor” (CF PharmTech, Inc., priority 2019, published 2022)
Counter-ions that a name gives are not always drawn.

Legend:
[1] = Anderson cascade impactor (ACI) test of the inhalation aerosol (deposition rate per plate, FPF); assay type: physicochemical; conditions: for Fine Particle Fraction (FPF) (lung): in single or compound preparations (MDI); for FPF of glycopyrronium bromide (%) / FPF of indacaterol maleate (%): inhalation aerosol prepared directly from micronized powder(s), no co-micronization; for Fine Particle Fraction (in words): prepared as a suspension-type inhalation aerosol
Method: Prescription amounts of glycopyrronium bromide and indacaterol maleate were added to an aluminum can, valve-sealed, and filled with propellant, HFA-134a. After being inverted for 2 days, it was tested according to 0951, volume IV general rules of the Pharmacopoeia of the People's Republic of China 2015 Edition. The sum of the deposition from the stage plate 3 to the filter membrane is the Fine Particle Dose (FPD). The FPD (less than 5 μm) divided by the total amount collected by the Anderson cascade impactor (Total Dose, TD) is the Fine Particle Fraction (FPF).
Micronized powders were precisely weighed and placed in a 14 mL fluorocarbon polymerization (FCP)-coated aluminum can, valve-sealed, filled, ultrasonicated for 10 minutes, and then kept for 2 days for Anderson cascade impactor testing. It was tested according to 0951 device 2, volume IV general rules of the Pharmacopoeia of the People's Republic of China 2015 Edition. The relative humidity of the test environment should be 45% to 55%. The flow rate was adjusted to 28.3±1.5 liters per minute. Take 1 bottle of this product, shake it sufficiently, and discard 4 sprays. Wipe the mouthpiece with ethanol, dry it sufficiently, turn on the vacuum pump, shake for 5 seconds (note that shake for 5 seconds before each spray and the interval between sprays is 30 seconds), insert the product into the adapter, and spray once immediately. After removing the aluminum can and the driver, shake for 5 seconds, reinsert into the adapter, and immediately spray the second time. Repeat this process until the completion of 10 sprays. After the last spray, wait 1 minute, then remove the aluminum can and driver, turn off the vacuum pump, and remove the device. The various plates of the Anderson impactor were washed with a specific ratio of methanol aqueous solution, and the content of the drugs deposited on each plate was determined by HPLC.

[2] = particle size test of micronized powder (D10, D50, D90, SPAN); assay type: physicochemical; conditions: fine powder used for direct mixing
Excerpt: In the invention, D90 is described as the volume of particles smaller than a certain particle size (x) accounts for 90% of the total volume of the particles, D50 is described as the volume of particles smaller than a certain particle size (x) accounts for 50% of the total volume of the particles, and D10 is described as the volume of particles smaller than a certain particle size (x) accounts for 10% of the total volume of the particles.
The pressure of the jet mill was decreased and the above steps were repeated, in order to investigate the effect of pressure (10 bar, 8 bar, 4 bar, 3 bar, 2 bar) on the particle size of the glycopyrronium bromide/indacaterol maleate mixture, the Fine Particle Fraction of glycopyrronium bromide and the degree of co-deposition of the two active ingredients.

Row | Fine Particle Fraction (FPF) (lung) [1] | FPF of glycopyrronium bromide (%) [1] | FPF of glycopyrronium bromide (%) ([1]; listed as glycopyrronium bromide fine powder) | Fine Particle Fraction (in words) [1] | D90 [2] | FPF of indacaterol maleate (%) [1] | FPF of indacaterol maleate (%) ([1]; listed as indacaterol fine powder) | Compound
1 | 15-20% | 25.68% | 24% | low | 3.43 μm | – | – | C[N+]1(C)CCC(OC(=O)C(O)(c2ccccc2)C2CCCC2)C1 (stereo not shown) [glycopyrronium bromide]
2 | 40-50% | – | – | high | 3.84 μm | 45.66% | 45% | CCc1cc2c(cc1CC)CC(NC[C@H](O)c1ccc(O)c3[nH]c(=O)ccc13)C2 [indacaterol maleate]
